From patent publication US8088806B2 (Achillion Pharmaceuticals, Inc., priority 2005, dated 2012) come the findings set out here.

pEC50: −log10 of the molar value.

The test system of one experiment is HCV replicon. Kind of experiment: Replicon based assay of HCV replication inhibition (NPT ELISA). Format: cell-based, Hepatitis C virus. The note with it: Hepatitis C virus, read-out: Activity. The essentials: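 Huh-7 cells carrying a bicistronic HCV replicon (neo, EMCV-IRES-driven NS3–NS5B) treated overnight after seeding with usually 6 concentrations, 10 to 0.03 micromolar, for three days at 37° C without G418. Replication read as NPT level by captured ELISA; matched-DMSO wells and interferon alpha as controls.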
On the technique in general: Replicon systems follow genome replication, usually without infectious particles.
On to `CCCCCCCCOc1cc([N+](=O)[O-])c(Nc2nc(-c3cccnc3)c([N+](=O)[O-])s2)cc1C(F)(F)F` [compound 788, N-(5-(trifluoromethyl)-2-nitro-4-(octyloxy)phenyl)-5-nitro-4-(pyridin-3-yl)thiazol-2-amine], for which the pEC50 is 5.00 to 6.00.

The same experiment, now with this note: Hepatitis C virus, replicon based assay of HCV replication inhibition; Table IV; read-out: Activity.
Regarding `COc1ncc(-c2csc(Nc3ccc(OCC4CCCCC4)c(C(F)(F)F)c3)n2)c(OC)n1` [compound 767, N-(4-(cyclohexylmethoxy)-3-(trifluoromethyl)phenyl)-4-(2,4-dimethoxypyrimidin-5-yl)thiazol-2-amine], the pEC50 is > 6.00. Turning to `Cc1ccnc(-c2csc(Nc3ccc(OCC4CCCCC4)c(C(F)(F)F)c3)n2)c1` [compound 768, N-(4-(cyclohexylmethoxy)-3-(trifluoromethyl)phenyl)-4-(4-methylpyridin-2-yl)thiazol-2-amine], the pEC50 is > 6.00. As to `CCOC(=O)c1csc(-c2csc(Nc3ccc(OCC4CCCCC4)c(C(F)(F)F)c3)n2)n1` [compound 769, ethyl 2-(2-(4-(cyclohexylmethoxy)-3-(trifluoromethyl)phenylamino)thiazole-4-yl)thiazole-4-carboxylate], the pEC50 was > 6.00. For the molecule `CCCCCCCCOc1ccc(Nc2nc(-c3nc4ccccc4n3C)cs2)cc1C(F)(F)F` [compound 770, N-(3-(trifluoromethyl)-4-(octyloxy)phenyl)-4-(1-methyl-1H-benzo[d]imidazol-2-yl)thiazol-2-amine], the pEC50 was > 6.00.

For `FC(F)(F)c1cccc(-c2csc(Nc3ccc(OCC4CCCCC4)c(C(F)(F)F)c3)n2)c1` [compound 771, N-(4-(cyclohexylmethoxy)-3-(trifluoromethyl)phenyl)-4-(3-(trifluoromethyl)phenyl)thiazol-2-amine], the pEC50 was > 6.00.

`COc1cccc(-c2csc(Nc3ccc(OCC4CCCCC4)c(C(F)(F)F)c3)n2)n1` [compound 772, N-(4-(cyclohexylmethoxy)-3-(trifluoromethyl)phenyl)-4-(6-methoxypyridin-2-yl)thiazol-2-amine]: the pEC50 is > 6.00.

In the case of `COc1ccc2cc(-c3csc(Nc4ccc(OCC5CCCCC5)c(C(F)(F)F)c4)n3)ccc2c1` [compound 773, N-(4-(cyclohexylmethoxy)-3-(trifluoromethyl)phenyl)-4-(2-methoxynaphthalen-6-yl)thiazol-2-amine], the pEC50 is > 6.00. On to `FC(F)(F)c1cc(Nc2nc(-c3cccc4cccnc34)cs2)ccc1OCC1CCCCC1` [compound 774, N-(4-(cyclohexylmethoxy)-3-(trifluoromethyl)phenyl)-4-(quinolin-8-yl)thiazol-2-amine], for which the pEC50 is > 6.00. Consider `COc1ncc(-c2csc(Nc3ccc(OC/C=C(\C)CCC=C(C)C)c(C(F)(F)F)c3)n2)cn1` [compound 775, N-(4-((E)-3,7-dimethylocta-2,6-dienyloxy)-3-(trifluoromethyl)phenyl)-4-(2-methoxypyrimidin-5-yl)thiazol-2-amine], for which the pEC50 was > 6.00. `COc1ncc(-c2csc(Nc3ccc(OCCC(C)CCCC(C)C)c(C(F)(F)F)c3)n2)cn1` (stereo not drawn) [compound 776, N-(4-(3,7-dimethyloctyloxy)-3-(trifluoromethyl)phenyl)-4-(2-methoxypyrimidin-5-yl)thiazol-2-amine]: the pEC50 was > 6.00. For `CCCCCCCCSc1ccc(Nc2nc(-c3cnc(OC)nc3)cs2)cc1C(F)(F)F` [compound 777, N-(3-(trifluoromethyl)-4-(octylthio)phenyl)-4-(2-methoxypyrimidin-5-yl)thiazol-2-amine], the pEC50 is > 6.00. Turning to `COc1ncc(-c2csc(Nc3ccc(C(=O)N4CCC5CCCCC5C4)c(C(F)(F)F)c3)n2)cn1` (stereo not drawn) [compound 778, (4-(4-(2-methoxypyrimidin-5-yl)thiazol-2-ylamino)-2-(trifluoromethyl)phenyl) (octahydroisoquinolin-2(1H)-yl)methanone], the pEC50 is 5.00 to 6.00.

Turning to `CCCCCCCCOC(=O)c1ccc(Nc2nc(-c3cnc(OC)nc3)cs2)cc1C(F)(F)F` [compound 779, octyl 4-(4-(2-methoxypyrimidin-5-yl)thiazol-2-ylamino)-2-(trifluoromethyl)benzoate], the pEC50 is > 6.00.

With `CCCCCCC#Cc1ccc(Nc2nc(-c3cnc(OC)nc3)cs2)cc1C(F)(F)F` [compound 780, N-(3-(trifluoromethyl)-4-(oct-1-ynyl)phenyl)-4-(2-methoxypyrimidin-5-yl)thiazol-2-amine], the pEC50 was > 6.00. On to `COc1ncc(-c2csc(Nc3ccc(N4CCC5CCCCC5C4)c(C(F)(F)F)c3)n2)cn1` (stereo not drawn) [compound 781, N-(3-(trifluoromethyl)-4-(octahydroisoquinolin-2(1H)-yl)phenyl)-4-(2-methoxypyrimidin-5-yl)thiazol-2-amine], for which the pEC50 is > 6.00.

Regarding `CCCCCCCCOc1ccc(Nc2nc(-c3ccc(O)cc3O)cs2)cc1C(F)(F)F` [compound 782, 4-(2-(3-(trifluoromethyl)-4-(octyloxy)phenylamino)thiazol-4-yl)benzene-1,3-diol], the pEC50 was > 6.00.

Regarding `CCCCCCCCOc1ccc(Nc2nc(-c3cccn3C)cs2)cc1C(F)(F)F` [compound 783, N-(3-(trifluoromethyl)-4-(octyloxy)phenyl)-4-(1-methyl-1H-pyrrol-2-yl)thiazol-2-amine], the pEC50 was > 6.00. Regarding `CCCCCCCCOc1ccc(Nc2nc(C(=O)CNc3nccs3)cs2)cc1C(F)(F)F` [compound 784, 1-(2-(3-(trifluoromethyl)-4-(octyloxy)phenylamino)thiazol-4-yl)-2-(thiazol-2-ylamino)ethanone], the pEC50 was > 6.00. Consider `CCCCCCCCOc1ccc(Nc2nc(C(=O)CSc3ncc[nH]3)cs2)cc1C(F)(F)F` [compound 785, 2-(1H-imidazol-2-ylthio)-1-(2-(3-(trifluoromethyl)-4-(octyloxy)phenylamino)thiazol-4-yl)ethanone], for which the pEC50 is 5.00 to 6.00. Turning to `CCCCCCCCOc1ccc(Nc2nc(C3=CSC4=NCCCN34)cs2)cc1C(F)(F)F` [compound 786, N-(3-(trifluoromethyl)-4-(octyloxy)phenyl)-4-(6,7-dihydro-5H-thiazolo[3,2-a]pyrimidin-3-yl)thiazol-2-amine], the pEC50 was > 6.00. Take `CCCCCCCCOc1ccc(Nc2nc(-c3cccnc3)c([N+](=O)[O-])s2)cc1C(F)(F)F` [compound 787, N-(3-(trifluoromethyl)-4-(octyloxy)phenyl)-5-nitro-4-(pyridin-3-yl)thiazol-2-amine]: the pEC50 was 5.00 to 6.00. Turning to `CCCCCCC#Cc1ccc(Nc2nc(-c3cccnc3)cs2)cc1C(F)(F)F` [compound 789, N-(3-(trifluoromethyl)-4-(oct-1-ynyl)phenyl)-4-(pyridin-3-yl)thiazol-2-amine], the pEC50 was > 6.00. On to `CCOC(=O)Cc1csc(Nc2nc(-c3cccnc3)cs2)n1` [compound 790, ethyl 2-(2-(4-(pyridin-3-yl)thiazol-2-ylamino)thiazol-4-yl)acetate], for which the pEC50 is < 5.00. Turning to `c1cncc(-c2csc(Nc3nc4ccccc4[nH]3)n2)c1` [compound 791, N-(4-(pyridin-3-yl)thiazol-2-yl)-1H-benzo[d]imidazol-2-amine], the pEC50 is < 5.00. Take `O=S1(=O)CCN(Cc2ccc(Nc3nc(-c4cccnc4)cs3)cc2)CC1` [compound 792]: the pEC50 is < 5.00.

Turning to `FC(F)(F)c1ccc(-c2cc(Nc3nc(-c4cccnc4)cs3)on2)cc1` [compound 793, 3-(4-(trifluoromethyl)phenyl)-N-(4-(pyridin-3-yl)thiazol-2-yl)isoxazol-5-amine], the pEC50 was < 5.00.
